The subject of this assay is human peripheral blood neutrophils. Briefly: Human peripheral blood neutrophil adhesion system (adhesion to immobilized HUVEC, PMA-stimulated). Conditions: 0.75 h, concentration inhibiting by 50% the PMA-stimulated increase in the number of adhered BCECF-AM labeled neutrophils on HUVEC immobilized plate, 45 minutes, 37° C. It is filed as cell-based. The method, then:
Evaluation of Compounds in Human Peripheral Blood Neutrophil Adhesion System
<Preparation of Human Peripheral Blood Neutrophils>
To a plastic centrifugation tube containing 100 units of heparin sodium (Shimizu Pharmaceutical) was added 25 ml of fresh blood sampled from a healthy human. After adding and mixing therewith 8 ml of physiological saline (Otsuka Pharmaceutical) containing 6% Dextran (Nacalai), the mixture was allowed to stand at room temperature for 45 minutes for sedimentation of the erythrocytes. The resultant supernatant was transferred to another plastic centrifugation tube and combined with an equivalent volume of phosphate-buffered saline (hereinafter abbreviated as PBS; Sigma), and then centrifuged at 1600 rpm for 7 minutes at room temperature. The obtained hematocyte fraction was suspended in 4 ml of PBS, and the suspension was superposed on 4 ml of Ficoll-Paque™ PLUS (Amersham Biosciences). The resultant bilayer liquid was centrifuged at 2000 rpm for 30 minutes at room temperature, after which the supernatant was removed and the precipitate was suspended in 10 ml of PBS and centrifuged at 1200 rpm for 7 minutes, and the supernatant was removed. The resulting precipitate was suspended in 0.5 ml of PBS again, and then 10 ml of distilled water (Otsuka Pharmaceutical) was added, 0.5 ml of an aqueous solution containing 3 M NaCl was immediately added to restore isotonicity, the mixture was centrifuged at 1200 rpm for 7 minutes, and the obtained precipitate was suspended in PBS containing 1 mg/ml bovine serum albumin (hereinafter abbreviated as BSA; Sigma) again and stored in ice until being used for the experiment.
<Fluorescent Labeling of Human Peripheral Blood Neutrophils>
The obtained neutrophils were suspended in PBS containing 1 mg/ml BSA at 2×10^7 cells/ml. BCECF-AM (Dojin) was added to a final concentration of 5 μM, and the mixture was incubated at 37° C. for 45 minutes. It was then rinsed twice with PBS containing 1 mg/ml BSA by centrifugation, suspended again in PBS containing 1 mg/ml BSA at 5×10^7 cells/ml, and stored in ice until use.
<Preparation of HUVEC Immobilized Plate>
Human umbilical vein endothelial cells (hereinafter abbreviated as HUVEC) were suspended in MCDB131 medium (Chlorella Industries) containing 10% fetal calf serum and 30 μg/ml endothelial cell growth supplement (Becton Dickinson Bioscience). The suspension was added at 7.5×10^3 cells/well to a 96-well plate (Iwaki) immobilized with type I collagen, and cultured for 3 days in a CO2 incubator (Hirasawa). Upon confirming confluency of the cells, the supernatant was discarded, the plate was rinsed twice with PBS, and then PBS containing 0.1% glutaraldehyde (Kanto Kagaku) was added at 100 μl/well and the HUVECs were immobilized for 5 minutes. The supernatant was discarded and the plate was washed twice with PBS, and then PBS was added at 100 μl/well and the mixture was stored at 4° C. until use.
To 6.5 ml of RPMI-1640 medium (Sigma) containing 1 mg/ml of BSA were added 0.5 ml of a suspension of BCECF-AM labeled neutrophils at 5×10^7/ml stored in ice, which was mixed, and the mixture was added at 80 μl/well to a HUVEC immobilized plate. To this plate were immediately added 10 μl/well of a solution of the compound diluted at different concentrations with RPMI-1640 containing 1 mg/ml BSA, and 10 μl/well of 100 nM phorbol myristate acetate (hereinafter abbreviated as PMA; Sigma) in RPMI-1640 containing 1 mg/ml BSA, and the mixture was incubated in a CO2 incubator at 37° C. for 45 minutes. The supernatant was removed from the plate, which was then washed several times with RPMI-1640 at 100 μl/well, and then PBS containing 0.1% NP-40 (Calbiochem) was added thereto at 100 μl/well and the fluorescent intensity was measured with and ARVO™SX 1420 multi label counter (Wallac) to determine the number of adhered cells. […]

The IC50 is the point on the concentration scale where inhibition reaches its midpoint. High values mean weaker potency, low ones greater potency. The compound `COCCN1CCN(c2ccccc2C2CCC(C(C)(C)C)CC2)CC1.Cl` (stereo not shown) [Example 19, 1-[2-(4-t-Butylcyclohexyl)phenyl]-4-(2-methoxyethyl)piperazine hydrochloride] registered an IC50 of 11.6 µM.

These data come from patent US20060276465A1, “1,2-di(cyclic) substituted benzene compounds” (Eisai R&D Management Co., Ltd., priority 2003, published 2006).
